Experimental data from patent publication US4720506A, “Immunomodulating agent” (Nippon Shinyaku Company, Limited, priority 1982, dated 1988).

Key:
[1] = tested on: Sheep Erythrocytes induced Delayed Type Hypersensitivity; test: Sheep erythrocytes induced delayed type hypersensitivity (footpad swelling); assay type: in vivo, mice (ddY); settings: Table 4, oral, 4 days, 24 hours after challenge
Protocol: Effect on Sheep Erythrocytes induced Delayed Type Hypersensitivity
40 μl of Sheep erythrocytes adjusted to the concentration of 1×10^7 /40 μl was subcutaneously injected to the right footpad of mice (ddY weighing 25-30 g) and the medicament was administered orally for continuous 4 days including the day, on which sheep erythrocytes were administered.
On the 4th day from the administration day of sheep erythrocytes, 40 μl of sheep erythrocytes adjusted to the concentration of 5×10^8 /40 μl was subcutaneously injected to the left footpad. After 24 hours, both of the thickness of the right and left footpad were measured. Footpad swelling due to the delayed type hypersensitivity was recognized as the difference between the thickness of the left and right footpad. The footpad swelling of the medicament-administration group was compared with that of physiological saline solution-administration group (control group).

[2] = tested on: Methylated Human Albumin induced Delayed Type Hypersensitivity; test: Methylated human albumin induced delayed type hypersensitivity (footpad swelling); assay type: in vivo, mice (C3H); settings: 4 days; for response vs control in vivo at 100 mg/kg / response vs control in vivo at 30 mg/kg / response vs control in vivo at 300 mg/kg: Mus musculus, 96 h
Protocol: Effect on Methylated Human Albumin induced Delayed Type Hypersensitivity
The medicament was administered orally for continuous 4 days including the immunization-day. On the 4th day from the immunization day, 25 μl of 0.1% methylated human albumin aqueous solution was subcutaneously injected to the footpad. After 24 hours, the thickness of the left and right footpad were measured, and the footpad swelling due to the delayed type hypersensitivity was represented as the difference between the thickness of the left and right footpad. The footpad swelling of the medicament-administration group was compared with that of physiological saline solution-administration group.

[3] = tested on: Plaque-Forming Cells in Spleen against Sheep Erythrocytes; test: Plaque-forming cells in spleen against sheep erythrocytes in mice; assay type: in vivo, mice (Balb/c); settings: oral, 4 days; for PFC, % Control: vs physiological saline
Protocol: Effect on Plaque-forming Cells in Spleen against Sheep Erythrocytes in mice
Balb/c mice of 5 weeks old were intravenously immunized with 1×10^8 sheep erythrocytes/mouse. 5 mice were used per group. Medicament was orally administered for 4 days from the day when the mice were immunized. Mice were sacrificed on the 5th day and the numbers of plaque-forming cells (PFC) in the spleen against sheep erythrocytes were determined by Fujiwara's modified method of Cunningham's method ["Method in Immunological Experiment A" edited by Japanese Society for Immunology, page 1272 (1974)].

[4] = tested on: mice; test: Acute toxicity in mice; assay type: in vivo; settings: 7th day
Protocol: The medicament was suspended in 3% "Tween-80" and the suspension was administered orally or intraperitonealy at a dose shown in Table 1 to mice (ddY weighing 20-25 g).

Cn1cnc([N+](=O)[O-])c1Sc1ncnc2nc[nH]c12 [Azathioprine, reference compound]
% Control of footpad swelling ([1]; 100 mg/kg): 49.0%
Footpad swelling, mean value ± standard error ([2]; Experiment 2, oral, 100 mg/kg): 41.4 ± 1.5 × 0.01 mm
response vs control in vivo at 100 mg/kg ([2]; Experiment 2, oral, 100 mg/kg): 70.9%

CCOC(=O)Cc1ccc(N)cc1 [Compound 1, Ethyl p-aminophenylacetate]
% Control of footpad swelling ([1]; 30 mg/kg): 79.8%
% Control of footpad swelling ([1]; 100 mg/kg): 85.9%
% Control of footpad swelling ([1]; 300 mg/kg): 77.9%
PFC, mean value ± standard error ([3]; Table 3, 30 mg/kg): 89.4 ± 10.4 × 3,125/spleen
PFC, % Control ([3]; Table 3, 30 mg/kg): 135%
PFC, mean value ± standard error ([3]; Table 3, 100 mg/kg): 60.6 ± 8.6 × 3,125/spleen
PFC, % Control ([3]; Table 3, 100 mg/kg): 91%
PFC, mean value ± standard error ([3]; Table 3, 300 mg/kg): 82.0 ± 5.2 × 3,125/spleen
PFC, % Control ([3]; Table 3, 300 mg/kg): 123%
Mortality ([4]; intraperitoneal, 1,000 mg/kg): 1/5
Mortality ([4]; oral, 3,000 mg/kg): 0/5

CCOC(=O)Cc1ccc(NC(C)=O)cc1 [Compound 4, Ethyl 4-acetylaminophenylacetate]
% Control of footpad swelling ([1]; 30 mg/kg): 91.5%
% Control of footpad swelling ([1]; 100 mg/kg): 93.8%
% Control of footpad swelling ([1]; 300 mg/kg): 68.4%
Footpad swelling, mean value ± standard error ([2]; Experiment 3, oral, 30 mg/kg): 48.3 ± 2.6 × 0.01 mm
Footpad swelling, mean value ± standard error ([2]; Experiment 3, oral, 100 mg/kg): 49.4 ± 3.5 × 0.01 mm
Footpad swelling, mean value ± standard error ([2]; Experiment 3, oral, 300 mg/kg): 56.5 ± 2.9 × 0.01 mm
response vs control in vivo at 30 mg/kg ([2]; po, Experiment 3, 30 mg/kg): 75.5%
response vs control in vivo at 100 mg/kg ([2]; po, Experiment 3, 100 mg/kg): 77.2%
response vs control in vivo at 300 mg/kg ([2]; po, Experiment 3, 300 mg/kg): 88.3%

CCOC(=O)Cc1ccc(NC(=O)C(C)C)cc1 [Compound 6, Ethyl 4-(isobutyrylamino)phenylacetate]
Footpad swelling, mean value ± standard error ([2]; Experiment 1, oral, 30 mg/kg): 59.0 ± 1.8 × 0.01 mm
Footpad swelling, mean value ± standard error ([2]; Experiment 1, oral, 100 mg/kg): 55.6 ± 1.2 × 0.01 mm
Footpad swelling, mean value ± standard error ([2]; Experiment 1, oral, 300 mg/kg): 56.8 ± 2.2 × 0.01 mm
response vs control in vivo at 30 mg/kg ([2]; po, Experiment 1, 30 mg/kg): 93.2%
response vs control in vivo at 100 mg/kg ([2]; po, Experiment 1, 100 mg/kg): 87.8%
response vs control in vivo at 300 mg/kg ([2]; po, Experiment 1, 300 mg/kg): 89.7%
Mortality ([4]; intraperitoneal, 1,000 mg/kg): 0/5
Mortality ([4]; oral, 5,000 mg/kg): 1/5

CCOC(=O)C(C)c1ccc(NC(C)=O)cc1 (stereo not drawn) [Compound 9, Ethyl 2-(4-acetylaminophenyl)propionate]
Footpad swelling, mean value ± standard error ([2]; Experiment 2, oral, 30 mg/kg): 51.4 ± 1.8 × 0.01 mm
Footpad swelling, mean value ± standard error ([2]; Experiment 2, oral, 100 mg/kg): 55.3 ± 2.0 × 0.01 mm
Footpad swelling, mean value ± standard error ([2]; Experiment 2, oral, 300 mg/kg): 56.0 ± 2.0 × 0.01 mm
response vs control in vivo at 30 mg/kg ([2]; po, Experiment 2, 30 mg/kg): 88%
response vs control in vivo at 100 mg/kg ([2]; po, Experiment 2, 100 mg/kg): 94.7%
response vs control in vivo at 300 mg/kg ([2]; po, Experiment 2, 300 mg/kg): 95.9%
Mortality ([4]; intraperitoneal, 1,000 mg/kg): 0/5
Mortality ([4]; oral, 1,500 mg/kg): 0/5

CC(=O)Nc1ccc(CC(=O)O)cc1 [Compound 10, 4-Acetylaminophenylacetate]
% Control of footpad swelling ([1]; 30 mg/kg): 77.0%
% Control of footpad swelling ([1]; 100 mg/kg): 85.7%
% Control of footpad swelling ([1]; 300 mg/kg): 71.6%
PFC, mean value ± standard error ([3]; Table 2, 30 mg/kg): 116.4 ± 8.64 × 2,500/spleen
PFC, % Control ([3]; Table 2, 30 mg/kg): 181%
PFC, mean value ± standard error ([3]; Table 2, 100 mg/kg): 107.2 ± 10.5 × 2,500/spleen
PFC, % Control ([3]; Table 2, 100 mg/kg): 167%
PFC, mean value ± standard error ([3]; Table 2, 300 mg/kg): 82.2 ± 7.0 × 2,500/spleen
PFC, % Control ([3]; Table 2, 300 mg/kg): 128%
Footpad swelling, mean value ± standard error ([2]; Experiment 1, oral, 300 mg/kg): 44.5 ± 1.6 × 0.01 mm
Footpad swelling, mean value ± standard error ([2]; Experiment 2, oral, 30 mg/kg): 46.1 ± 1.7 × 0.01 mm
Footpad swelling, mean value ± standard error ([2]; Experiment 2, oral, 100 mg/kg): 41.8 ± 2.5 × 0.01 mm
Footpad swelling, mean value ± standard error ([2]; Experiment 2, oral, 300 mg/kg): 42.3 ± 1.8 × 0.01 mm
response vs control in vivo at 300 mg/kg ([2]; po, Experiment 1, 300 mg/kg): 70.3%
response vs control in vivo at 30 mg/kg ([2]; po, Experiment 2, 30 mg/kg): 78.9%
response vs control in vivo at 100 mg/kg ([2]; po, Experiment 2, 100 mg/kg): 71.6%
response vs control in vivo at 300 mg/kg ([2]; po, Experiment 2, 300 mg/kg): 72.4%
Mortality ([4]; intraperitoneal, 1,000 mg/kg): 0/5
Mortality ([4]; oral, 5,000 mg/kg): 0/5

CC(=O)Nc1ccc(C(C)(C)C(=O)O)cc1 [Compound 11, 2-(4-Acetylaminophenyl)-2-methylpropionic acid]
Footpad swelling, mean value ± standard error ([2]; Experiment 2, oral, 30 mg/kg): 54.5 ± 1.7 × 0.01 mm
Footpad swelling, mean value ± standard error ([2]; Experiment 2, oral, 100 mg/kg): 55.4 ± 1.8 × 0.01 mm
Footpad swelling, mean value ± standard error ([2]; Experiment 2, oral, 300 mg/kg): 51.3 ± 2.3 × 0.01 mm
response vs control in vivo at 30 mg/kg ([2]; po, Experiment 2, 30 mg/kg): 93.3%
response vs control in vivo at 100 mg/kg ([2]; po, Experiment 2, 100 mg/kg): 94.9%
response vs control in vivo at 300 mg/kg ([2]; po, Experiment 2, 300 mg/kg): 87.8%
Mortality ([4]; intraperitoneal, 1,000 mg/kg): 0/5
Mortality ([4]; oral, 5,000 mg/kg): 0/5

CC(=O)Nc1ccc(C(C)C(=O)O)cc1 (stereo not drawn) [Compound 12, 2-(4-Acetylaminophenyl)propionic acid]
Footpad swelling, mean value ± standard error ([2]; Experiment 2, oral, 30 mg/kg): 54.5 ± 1.7 × 0.01 mm
Footpad swelling, mean value ± standard error ([2]; Experiment 2, oral, 100 mg/kg): 52.1 ± 1.5 × 0.01 mm
Footpad swelling, mean value ± standard error ([2]; Experiment 2, oral, 300 mg/kg): 52.4 ± 1.9 × 0.01 mm
response vs control in vivo at 30 mg/kg ([2]; po, Experiment 2, 30 mg/kg): 93.2%
response vs control in vivo at 100 mg/kg ([2]; po, Experiment 2, 100 mg/kg): 89.2%
response vs control in vivo at 300 mg/kg ([2]; po, Experiment 2, 300 mg/kg): 89.7%
Mortality ([4]; intraperitoneal, 1,000 mg/kg): 0/5
Mortality ([4]; oral, 5,000 mg/kg): 0/5

CC(C)C(=O)Nc1ccc(CC(=O)O)cc1 [Compound 13]
Footpad swelling, mean value ± standard error ([2]; Experiment 1, oral, 30 mg/kg): 57.2 ± 1.9 × 0.01 mm
Footpad swelling, mean value ± standard error ([2]; Experiment 1, oral, 100 mg/kg): 58.2 ± 1.9 × 0.01 mm
Footpad swelling, mean value ± standard error ([2]; Experiment 1, oral, 300 mg/kg): 58.5 ± 2.4 × 0.01 mm
response vs control in vivo at 30 mg/kg ([2]; po, Experiment 1, 30 mg/kg): 90.4%
response vs control in vivo at 100 mg/kg ([2]; po, Experiment 1, 100 mg/kg): 91.9%
response vs control in vivo at 300 mg/kg ([2]; po, Experiment 1, 300 mg/kg): 92.4%
Mortality ([4]; intraperitoneal, 1,000 mg/kg): 1/5
Mortality ([4]; oral, 5,000 mg/kg): 0/5

CCCC(=O)Nc1ccc(CC(=O)O)cc1 [Compound 14, 4-n-Butyrylaminophenylacetic acid]
Footpad swelling, mean value ± standard error ([2]; Experiment 2, oral, 30 mg/kg): 50.9 ± 2.0 × 0.01 mm
Footpad swelling, mean value ± standard error ([2]; Experiment 2, oral, 100 mg/kg): 51.8 ± 1.4 × 0.01 mm
Footpad swelling, mean value ± standard error ([2]; Experiment 2, oral, 300 mg/kg): 56.7 ± 1.5 × 0.01 mm
response vs control in vivo at 30 mg/kg ([2]; po, Experiment 2, 30 mg/kg): 87.2%
response vs control in vivo at 100 mg/kg ([2]; po, Experiment 2, 100 mg/kg): 88.7%
response vs control in vivo at 300 mg/kg ([2]; po, Experiment 2, 300 mg/kg): 97.1%
Mortality ([4]; intraperitoneal, 1,000 mg/kg): 0/5

Cc1ccc(C(=O)Nc2ccc(CC(=O)O)cc2)cc1 [Compound 15, 4-(4-Methylbenzoylamino)phenylacetic acid]
Footpad swelling, mean value ± standard error ([2]; Experiment 1, oral, 30 mg/kg): 54.2 ± 1.7 × 0.01 mm
Footpad swelling, mean value ± standard error ([2]; Experiment 1, oral, 100 mg/kg): 56.7 ± 1.8 × 0.01 mm
Footpad swelling, mean value ± standard error ([2]; Experiment 1, oral, 300 mg/kg): 57.4 ± 1.5 × 0.01 mm
response vs control in vivo at 30 mg/kg ([2]; po, Experiment 1, 30 mg/kg): 85.6%
response vs control in vivo at 100 mg/kg ([2]; po, Experiment 1, 100 mg/kg): 89.6%
response vs control in vivo at 300 mg/kg ([2]; po, Experiment 1, 300 mg/kg): 90.7%
Mortality ([4]; intraperitoneal, 300 mg/kg): 0/5
Mortality ([4]; intraperitoneal, 1,000 mg/kg): 5/5
Mortality ([4]; oral, 1,000 mg/kg): 0/5
Mortality ([4]; oral, 5,000 mg/kg): 5/5
